Biological target: T1, BdRppH (Bdellovibrio bacteriovorus, UniProt Q6MPX4)
T1 sequence (Q6MPX4 1-153): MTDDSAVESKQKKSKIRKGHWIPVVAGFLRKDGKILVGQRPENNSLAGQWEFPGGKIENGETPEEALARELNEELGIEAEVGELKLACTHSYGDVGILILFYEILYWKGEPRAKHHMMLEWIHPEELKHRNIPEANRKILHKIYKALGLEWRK
Assay: X-ray crystal structure
Assay type: binding
Conditions: deposited complex; not described in text

Nc1nc2c(ncn2[C@H]2C[C@H](O)[C@@H](COP(=O)(O)OP(=O)(O)OP(=O)(O)O)O2)c(=O)[nH]1 [dGTP]
X-ray crystal structure: RNA pyrophosphohydrolase in complex with dGTP
